The text below walks through data of publication PMC8123621, “Development of Novel Potential Pleiotropic Compounds of Interest in Alzheimer’s Disease Treatment through Rigidification Strategy” (Molecules, 2021).

The target of assay [1] is T1, human 5-HT4R (5-HT4(b) membrane preparations) (Homo sapiens, UniProt Q13639).
T1 construct: purchased Eurofins HTS110M
The assay is described as follows: h5-HT4R radioligand displacement ([3H]-GR113808). The format is binding. Particulars: for inhibition at 1 µM: 10^−6 M, 0.5 nM [3H]-GR113808. The protocol: (§1) The inhibitory activity of novel analogs towards hAChE was evaluated according to the Ellman test.
At the end of the incubation, homogenates were filtered through Whatman GF/C filters (Alpha Biotech) presoaked with 0.5% polyethylenimine using a Brandel cell harvester. Filters were subsequently washed three times with 1 mL of ice-cold 25 mM Tris buffer (pH 7.4, 4 °C). Non-specific binding was evaluated in parallel in the presence of 30 µM serotonin.
(§2) For some of these compounds, affinity constants were calculated from five-point inhibition curves using the GraphPad Prism 6 software and expressed as Ki ± SD.
For orientation: In a radioligand displacement assay an active substance lowers the binding of a labelled ligand.

The target of assay [2] is T2, hAChE (AChE from human erythrocytes) (Homo sapiens, UniProt P22303).
T2 construct: AChE from human erythrocytes; purchased Sigma Aldrich; host or cells: human erythrocytes (tissue-derived enzyme)
T2 sequence (P22303 32-617 isoform P22303-2 limits assumed): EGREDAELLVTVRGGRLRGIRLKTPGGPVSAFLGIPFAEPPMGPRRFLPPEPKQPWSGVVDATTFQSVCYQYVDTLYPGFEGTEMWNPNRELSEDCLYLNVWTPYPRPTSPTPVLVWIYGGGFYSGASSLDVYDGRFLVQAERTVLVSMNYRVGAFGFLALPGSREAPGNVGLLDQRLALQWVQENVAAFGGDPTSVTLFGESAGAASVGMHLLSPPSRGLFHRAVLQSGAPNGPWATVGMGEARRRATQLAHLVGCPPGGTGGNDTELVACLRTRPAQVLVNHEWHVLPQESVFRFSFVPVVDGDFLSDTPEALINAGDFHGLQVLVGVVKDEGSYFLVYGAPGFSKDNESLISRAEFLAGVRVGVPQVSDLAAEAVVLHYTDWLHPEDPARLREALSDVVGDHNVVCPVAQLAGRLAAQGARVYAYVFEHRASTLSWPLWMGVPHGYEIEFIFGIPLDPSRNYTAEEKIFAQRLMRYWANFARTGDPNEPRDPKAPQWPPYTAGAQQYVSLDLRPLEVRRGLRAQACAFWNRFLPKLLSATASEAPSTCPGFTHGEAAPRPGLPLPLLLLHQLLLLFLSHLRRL
The assay is described as follows: biochemical. Particulars: for inhibition at 1 µM: read-out: hAChE % Inhibition at 10^−6 M; for IC50: mean ± SEM of three experiments, read-out: hAChE IC50 (nM) (n = 3). Here is the method: as §1
Inhibitory capacity of compounds on AChE biological activity was evaluated through the use of the spectrometric method of Ellman. Acetylthiocholine iodide and 5,5-dithiobis-(2-nitrobenzoic) acid (DTNB) were purchased from Sigma Aldrich. AChE from human erythrocytes (buffered aqueous solution, ≥500 units/mg protein (BCA), Sigma Aldrich) was diluted in 20 mM HEPES buffer pH 8, 0.1% Triton X-100 such as to have enzyme solution with 0.25 unit/mL enzyme activity. In the procedure, 100 μL of 0.3 mM DTNB dissolved in phosphate buffer pH 7.4 were added into the 96 wells plate followed by 50 μL of test compound solution and 50 μL of enzyme ([…]). After 5 min of preincubation at 25 °C, the reaction was then initiated by the injection of 50 μL of 1 mM acetylthiocholine iodide solution. […] Assays were performed with a blank containing all components except acetylthiocholine, in order to account for non-enzymatic reaction. The reaction slopes were compared and the percent inhibition due to the presence of test compounds was calculated by the following expression: 100 − (vi/v0 × 100) where vi is the rate calculated in the presence of inhibitor and v0 is the enzyme activity.

A further assay deals with T3, human 5-HT6 receptors (Homo sapiens, UniProt P50406).
T3 construct: purchased Perkin Elmer RBHS6M; host or cells: HEK-293 cells, transient expression
T3 sequence (P50406 whole entry): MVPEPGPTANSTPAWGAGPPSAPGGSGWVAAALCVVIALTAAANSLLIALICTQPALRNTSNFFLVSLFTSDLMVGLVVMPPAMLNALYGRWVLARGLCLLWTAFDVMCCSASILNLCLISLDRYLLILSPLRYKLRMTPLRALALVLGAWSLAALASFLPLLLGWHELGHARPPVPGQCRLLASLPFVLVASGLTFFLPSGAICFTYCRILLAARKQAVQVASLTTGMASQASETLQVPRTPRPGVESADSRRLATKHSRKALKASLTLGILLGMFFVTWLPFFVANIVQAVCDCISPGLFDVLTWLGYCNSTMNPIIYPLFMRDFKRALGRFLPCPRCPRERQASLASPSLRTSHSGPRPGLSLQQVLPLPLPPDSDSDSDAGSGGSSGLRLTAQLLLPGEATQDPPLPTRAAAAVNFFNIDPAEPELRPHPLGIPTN
The assay is described as follows: h5-HT6R radioligand displacement ([3H]-LSD). Particulars: 10^−6 M; 2.5 nM [3H]-LSD. The format is binding. Here is the method:
as §1
Drugs were evaluated through their possibility to compete for the binding of [^3H]-LSD on membranes of HEK-293 cells transiently expressing the human 5-HT6 receptors (ref. RBHS6M, Perkin Elmer). […] At the end of the incubation, the homogenates were then filtered through Whatman GF/C filters and washed five times with ice-cold 25 mM Tris-HCl buffer. Non-specific binding was evaluated in the presence of 100 µM serotonin. Radioactivity associated to proteins was then quantified and expressed as the percentage of inhibition of the drugs under study.
as §2

Assay [3] has as its system scopolamine induced deficit. Also on record: method as in PMID 31316368. Particulars: model of scopolamine induced deficit; cited from earlier work.

T1 sequence (Q13639 whole entry): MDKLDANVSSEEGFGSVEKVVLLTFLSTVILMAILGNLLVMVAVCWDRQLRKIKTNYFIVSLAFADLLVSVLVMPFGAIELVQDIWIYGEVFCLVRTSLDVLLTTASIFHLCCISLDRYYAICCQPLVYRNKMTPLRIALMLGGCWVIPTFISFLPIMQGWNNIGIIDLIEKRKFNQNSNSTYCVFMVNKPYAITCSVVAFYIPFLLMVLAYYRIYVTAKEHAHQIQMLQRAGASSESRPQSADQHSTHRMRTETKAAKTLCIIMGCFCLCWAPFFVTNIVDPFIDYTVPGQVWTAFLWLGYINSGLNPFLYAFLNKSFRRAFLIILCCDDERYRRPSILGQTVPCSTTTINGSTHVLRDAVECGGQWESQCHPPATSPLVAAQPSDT

One may read the inhibition as the relative decrease from the control value, in per cent. For `COc1cc(N)c(Cl)cc1-c1nn(C)cc1CC1CCN(CC2CCCCC2)CC1` [3a, 2-chloro-4-(4-((1-(cyclohexylmethyl)piperidin-4-yl)methyl)-1-methyl-1H-pyrazol-3-yl)-5-methoxyaniline], the figures for the inhibition at 1 µM (in assay [1]; in assay [2]; at human 5-HT6 receptors) were 34%, 34% and 2%, respectively.
For orientation: IC50 means the concentration that inhibits the measured activity by half. On to `COc1cc(N)c(Cl)cc1-c1nn(C)cc1CC1CCN(Cc2cccc(C)c2)CC1` [3b, 2-chloro-5-methoxy-4-(1-methyl-4-((1-(3-methylbenzyl)piperidin-4-yl)methyl)-1H-pyrazol-3-yl)aniline], for which the inhibition at 1 µM in assay [1] is 20%; in assay [2] it was 76%; at human 5-HT6 receptors, 68%. For the same molecule, in assay [2], the IC50 stood at 110 ± 4 nM.
For `COc1cc(NC(C)=O)c(Cl)cc1-c1cc(OCC2CCN(Cc3cccc(C)c3)CC2)n(C)n1` [12b, N-(2-chloro-5-methoxy-4-(1-methyl-5-((1-(3-methylbenzyl)piperidin-4-yl)methoxy)-1H-pyrazol-3-yl)phenyl)acetamide], the inhibition at 1 µM in assay [1] turned out to be 9%; in assay [2], 15%; at human 5-HT6 receptors, 0%.
The matching figures for `Cc1cccc(CN2CCC(COc3cc(-c4ccccc4)nn3C)CC2)c1` [12c, 4-(((1-methyl-3-phenyl-1H-pyrazol-5-yl)oxy)methyl)-1-(3-methylbenzyl)piperidine]: 10%, 15% and 6%.
The matching figures for `COc1ccc(-c2cc(OCC3CCN(Cc4cccc(C)c4)CC3)n(C)n2)cc1OC` [12d, 4-(((3-(3,4-dimethoxyphenyl)-1_methyl-1H-pyrazol-5-yl)oxy)methyl)-1-(3-methylbenzyl)piperidine]: 9%, 6% and 9%.
Take `COc1cc(N)c(Cl)cc1C(=O)CCC1CCN(CC2CCCCC2)CC1` [Donecopride, donecopride, reference compound]: the inhibition at 1 µM in assay [1] is 100%; in assay [2] it was 96%; on human 5-HT6 receptors, 30%.
As for `Fc1ccc2c(CCNCc3cccc(OCC(F)(F)C(F)F)c3)c[nH]c2c1` [Idalopirdine, idalopirdine, reference compound], the inhibition at 1 µM on human 5-HT6 receptors amounted to 106%.
As to `COc1cc(N)c(Cl)cc1C(=O)CCC1CCN(Cc2cccc(C)c2)CC1` [MR33372, reference compound], the inhibition at 1 µM in assay [1] is 98%; on human 5-HT6 receptors, 80%. Also, the “in vivo anti-amnesic effect” value in assay [3] was “anti-amnesic effect”.
As for `CCCCN1CCC(CCC(=O)c2cc(Cl)c(N)cc2OC)CC1` [RS67333, reference compound], in assay [1], the inhibition at 1 µM was 100%.
For `COc1cc(NC(C)=O)c(Cl)cc1-c1nn(C)cc1CC1CCN(CC2CCCCC2)CC1` [compound 6, N-(2-chloro-4-(4-((1-(cyclohexylmethyl)piperidin-4-yl)methyl)-1-methyl-1H-pyrazol-3-yl)-5-methoxyphenyl)acetamide], the results for the inhibition at 1 µM (in assay [1]; in assay [2]; at human 5-HT6 receptors) were 16%, 31% and 0%, respectively.
A word on the Ki: it is a dissociation constant, usually derived from enzyme kinetics or from competition with a known ligand. The low end stands for tighter binding, the high end for weaker binding. On to `COc1cc(NC(C)=O)c(Cl)cc1C(=O)CCC1CCN(CC2CCCCC2)CC1` [compound 7, N-(2-chloro-4-(3-(1-(cyclohexylmethyl)piperidin-4-yl)propanoyl)-5-methoxyphenyl)acetamide], for which, in assay [1], the affinity corresponds to a Ki of 300 nM and the inhibition at 1 µM was determined as 94%. For the same molecule, in assay [2], the IC50 stood at 34 ± 5 nM and the inhibition at 1 µM was found to be 98%.
